Article PMC3050433, “The effects of maribavir on the autophosphorylation of ganciclovir resistant mutants of the cytomegalovirus UL97 protein” (Herpesviridae, 2010)
Numbering of substitutions follows the chain as printed.

What was measured:
HCMV = tested on: HCMV; design: method as in PMID 12121906; conditions: HCMV replication in vitro; cited from earlier work
UL97 H662L = target: T1, UL97 H662L (Human cytomegalovirus, UniProt Q68101, H662L); assay: UL97 autophosphorylation protein kinase assay, H662L; format: biochemical; conditions: H662L mutant
T1 construct: PCR reaction to generate the full length UL97; honey bee melittin secretion signal (N); made in house; host or cells: Sf21 insect cells, recombinant baculovirus (pMelBac C)
T1 sequence (Q68101 1-707 H662L): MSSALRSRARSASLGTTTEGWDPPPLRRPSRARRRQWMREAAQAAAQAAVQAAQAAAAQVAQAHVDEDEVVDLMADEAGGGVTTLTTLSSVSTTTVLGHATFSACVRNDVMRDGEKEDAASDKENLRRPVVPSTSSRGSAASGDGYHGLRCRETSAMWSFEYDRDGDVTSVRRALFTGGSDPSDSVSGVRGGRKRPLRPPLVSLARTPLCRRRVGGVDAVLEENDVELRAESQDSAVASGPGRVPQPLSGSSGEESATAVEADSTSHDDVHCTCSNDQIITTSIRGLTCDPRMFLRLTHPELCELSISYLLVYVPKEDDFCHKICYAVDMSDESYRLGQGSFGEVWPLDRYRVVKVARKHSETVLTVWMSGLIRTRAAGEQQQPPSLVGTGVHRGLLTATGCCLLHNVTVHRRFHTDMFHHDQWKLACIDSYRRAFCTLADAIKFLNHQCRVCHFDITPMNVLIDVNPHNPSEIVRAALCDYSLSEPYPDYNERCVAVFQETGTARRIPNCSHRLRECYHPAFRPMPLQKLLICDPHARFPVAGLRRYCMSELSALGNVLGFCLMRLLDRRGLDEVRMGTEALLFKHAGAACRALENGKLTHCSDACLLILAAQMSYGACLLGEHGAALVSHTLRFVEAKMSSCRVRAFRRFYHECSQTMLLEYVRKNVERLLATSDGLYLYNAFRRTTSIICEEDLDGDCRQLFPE
Experimental: (§1) Analysis of the autophosphorylation of wild type and mutant UL97 protein species was performed by a standard protein kinase assay as previously described (46). Briefly, purified protein was added to 2× protein kinase buffer (100 mM Tris HCl, pH9.0, 20 mM MgCl2, 10 μM ATP, 4 mM DTT, 2 M NaCl) and 370 KBq [γ^32P] ATP (Amersham), made up to 20 μl with SDW and incubated at 37°C. The reactions were terminated by the addition of 2× SDS sample buffer followed by boiling for 3 minutes. The amount of radiolabelled phosphate incorporated by autophosphorylation was analysed by SDS-PAGE and measured using the Biorad Mulitanalyst. The protein kinase assays were initially performed for 2 to 60 minutes to determine the maximum rate of phosphate incorporation, all assays were then performed at the maximum rate which equated to 5 minutes.
(§2) Enzyme kinetic analysis was performed on the purified wild type and mutant UL97 protein species as above using increasing concentrations of ATP (2 μM to 20 μM). The amount of incorporated radiolabelled phosphate was plotted against the concentration of ATP in a Lineweaver Burke plot to determine the Km for ATP for each UL97 species. […]

UL97 V665I = target: T2, UL97 V665I (Human cytomegalovirus, UniProt Q68101, V665I); assay: UL97 autophosphorylation protein kinase assay, V665I; format: biochemical; conditions: V665I mutant
T2 construct: PCR reaction to generate the full length UL97; honey bee melittin secretion signal (N); made in house; host or cells: Sf21 insect cells, recombinant baculovirus (pMelBac C)
T2 sequence (Q68101 1-707 V665I): T1 sequence (Q68101 1-707 H662L) with L662H, V665I
Experimental: as §1, §2

UL97 D456A = target: T3, UL97 D456A (Human cytomegalovirus, UniProt Q68101, D456A); assay: UL97 autophosphorylation protein kinase assay, D456A; format: biochemical; conditions: D456A mutant
T3 construct: PCR reaction to generate the full length UL97; honey bee melittin secretion signal (N); made in house; host or cells: Sf21 insect cells, recombinant baculovirus (pMelBac C)
T3 sequence (Q68101 1-707 D456A): T1 sequence (Q68101 1-707 H662L) with D456A, L662H
Experimental: as §1, §2

CC(C)Nc1nc2cc(Cl)c(Cl)cc2n1[C@H]1O[C@@H](CO)[C@H](O)[C@@H]1O [maribavir, 5,6-dichloro-2-(isopropylamino)-1-beta-L-ribofuranosyl-1H-benzimidazole]
IC50 fold lower than that observed for GCV (HCMV): 4-to 10 fold
IC50 (UL97 H662L): 40 nM
IC50 (UL97 V665I): 30 nM
IC50 (UL97 D456A): 34 nM
